According to patent US10493029B2, “Ziyuglycoside II polymer micelle and preparative methods thereof” (SICHUAN INLU WEITE PHARMACEUTICAL TECHNOLOGY CO., LTD., priority 2016, dated 2019):

Test system: bone marrow suppression induced by cyclophosphamide in KM-mice
Assay: Pharmacodynamic experiment: cyclophosphamide-induced bone marrow suppression, peripheral blood counts
Assay type: in vivo
Procedure: 1. Experimental Materials, Reagents, Apparatus
Test drugs were ziyuglycoside II micelles and ziyuglycoside II powder.
Tool drug was cyclophosphamide.
Laboratory animals were KM-mice: 18.5-22.5 g.
Laboratory apparatus: Automatic blood counting analyzer; BS-600L electronic balance: specification: 600 g/0.1 g, Shanghai Yousheng Weighing Apparatus Co. Ltd.
Statistical analysis was performed using SPSS 17.0 software. Data were expressed as mean±standard error (x±S), and one-factor analysis of variance was used among groups. For homogeneity of variance, data between groups were compared by LSD test, while for heterogeneity of variance, data between groups were compared by Tamhane's T2 test.
After all animals were adaptively fed for one week, according to the body weight, animals were randomly divided as blank group; model group; ziyuglycoside II micelle sample groups 1-4 (respectively using micelles prepared in examples 1-4), with a dosage of 2.5 mg·kg^−1, preparation before use; ziyuglycoside II group: powder of ziyuglycoside II raw materials, dissolved in 10% DMSO-normal saline, with a dosage of 2.5 mg·kg^−1, preparation before use. On the first day of experiment, except for blank group, mice in other groups received cyclophosphamide normal saline solution at a dose of 120 mg·kg^−1 by peritoneal injection, and mice in blank group received the same volume of normal saline by peritoneal injection.
From the first day of experiment, each experimental group was given the corresponding drug as the predetermined dosage and administration mode, and mice in blank group and model group were given a same volume of normal saline by injection into the tail vein, for successive 6 days.
On the seventh day of experiment, whole blood was collected from orbit of mice in each experimental group, and placed in 0.5 ml EP tubes containing EDTA anticoagulant agent for test.
White blood cells (WBC), neutrophilic granulocytes (NEUT), red blood cells (RBC), platelets (PLT), and hemoglobin (HGB) in peripheral blood of mice in each experimental group were counted using automatic blood counting instrument.

[1] = cyclophosphamide 120 mg/kg i.p. day 1, drug 2.5 mg/kg for 6 days, blood on day 7, mean±standard error

C[C@@H]1CC[C@]2(C(=O)O)CC[C@]3(C)C(=CC[C@@H]4[C@@]5(C)CC[C@H](O[C@@H]6OC[C@H](O)[C@H](O)[C@H]6O)C(C)(C)[C@@H]5CC[C@]43C)[C@@H]2[C@]1(C)O [Ziyuglycoside II, 3-O-α-L-arabinosyl-19α-hydroxyurs-12-en-28-oic acid]
numbers of NEUT and HGB in peripheral blood compared with model group (2.5 mg/kg, P<0.05): did not show significant difference | numbers of WBC, RBC, and PLT in peripheral blood compared with model group (2.5 mg/kg, P<0.05): did not show significant difference | HGB in peripheral blood [1]: 44.65 ± 7.27 g/L | NEUT in peripheral blood [1]: 2.47 ± 0.55 ×10^9 | PLT in peripheral blood [1]: 221.18 ± 6.15 ^ ×10^9 | RBC in peripheral blood [1]: 3.54 ± 0.11 ×10^12 | WBC in peripheral blood [1]: 3.71 ± 0.13 ×10^9
